Measurements taken from patent publication US20250213701A1, “MEDICAMENT FOR TREATING HUMAN TUMOR BASED ON ERF3A-TARGETING PROTEOLYSIS MECHANISM” (SUZHOU DEGEN BIO-MEDICAL CO., LTD., priority 2022, published 2025).

Tests used:
Assay type in all cases: cell-based, human
22Rv1 cells = experiment: Anti-proliferative toxicity against prostate cancer cell line 22Rv1 (CCK8); settings: 3 days; for IC50: Homo sapiens, 72 h, CCK8
Method: (§1) Example 82: Detection of Anti-Proliferative Toxicity Against Prostate Cancer Cell Lines Vcap, 22Rv1, and PC-3
(§2) Vcap cells (purchased from the Cell Bank of the Chinese Academy of Sciences, Cat. No. SCSP-5034) were subcultured in a culture medium (DMEM medium+1% penicillin-streptomycin dual-antibiotic solution+10% fetal bovine serum) in an incubator at 5% carbon dioxide and 37° C. 22Rv1 cells (purchased from the Cell Bank of the Chinese Academy of Sciences, Cat. No. TCHu100) were subcultured in a culture medium (RPMI-1640 medium+1% penicillin-streptomycin dual-antibiotic solution+10% fetal bovine serum) in an incubator at 5% carbon dioxide and 37° C.
22Rv1 cells were seeded at 5000 cells/well (90 μL) on a 96-well plate and cultured for 48 h.
(§3) 10 mM compound stock solutions were prepared in DMSO.
(§4) For 22Rv1 cells and PC-3 cells, the compound stock solution was diluted with DMSO to give DMSO solutions 11-19 at concentrations of 0 μM, 500 μM, 100 μM, 20 μM, 4 μM, 0.8 μM, 0.16 μM, 0.032 μM, 0.0064 μM.
For 22Rv1 cells, 2 μL of each of the above solutions 11-19 was added to 98 μL of 22Rv1 medium to give mixed solutions 30-38 of the compound and the medium.
(§5) For 22Rv1 and PC-3 cells, 10 μL of each of the above solutions 30-38 or 39-47 was added to the above cell seed solution to give a total volume of 100 μL (90 μL+10 μL), where the concentrations of the compound in wells were 0 μM, 1.0 μM, 0.2 μM, 0.04 μM, 0.008 μM, 0.0016 μM, 0.00032 μM, 0.00006 μM, and 0.00001 μM. All concentrations were in triplicate.
(§6) After the above-treated cells were cultured for 3 days, 10 μL of the CCK8 solution (DOJINDO, Cat. No. PF725) was added to each well. The plate was incubated in an incubator at 37° C. for 1-4 h and then detected on a microplate reader for the reading at 450 nm.

PC-3 cells = experiment: Anti-proliferative toxicity against prostate cancer cell line PC-3 (CCK8); settings: Homo sapiens, 72 h, 3 days
Method: as §1
PC-3 cells (purchased from the Cell Bank of the Chinese Academy of Sciences, Cat. No. SCSP-532) were subcultured in a culture medium (F12K medium+1% penicillin-streptomycin dual-antibiotic solution+10% fetal bovine serum) in an incubator at 5% carbon dioxide and 37° C.
PC-3 cells were seeded at 4000 cells/well (90 μL) on a 96-well plate and cultured for 24 h.
as §3, §4
For PC-3 cells, 2 μL of each of the above solutions 11-19 was added to 98 μL of PC-3 medium to give mixed solutions 39-47 of the compound and the medium.
as §5, §6

VCaP cells = experiment: Anti-proliferative toxicity against prostate cancer cell line Vcap (CCK8); settings: 3 days; for IC50: Homo sapiens, 72 h, CCK8
Method: as §1, §2
VCap cells were seeded at 20000 cells/well (90 μL) on a 96-well plate and cultured for 72 h. The original medium was removed, and a new medium of 90 μL was added.
as §3
For VCap cells, the compound stock solution was diluted with DMSO to give DMSO solutions 1-10 at concentrations of 0 μM, 80 μM, 16 μM, 3.2 μM, 1.5 μM, 0.5 μM, 0.15 μM, 0.05 μM, 0.025 μM, and 0.0005 μM.
For Vcap cells, 2 μL of each of the above solutions 1-10 was added to 98 μL of Vcap medium to give mixed solutions 20-29 of the compound and the medium.
For Vcap cells, 10 μL of each of the above solutions 20-29 was added to the above cell seed solution to give a total volume of 100 μL (90 μL+10 μL), where the concentrations of the compound in wells were 0 μM, 0.16 μM, 0.032 μM, 0.006 μM, 0.003 μM, 0.001 μM, 0.0003 μM, 0.0001 μM, 0.00005 μM, and 0.00001 μM. All concentrations were in triplicate.
as §6

Row | SMILES | IC50 (22Rv1 cells) [nM] | IC50 (PC-3 cells) [nM] | IC50 (VCaP cells) [nM] | other results
1 | C[C@]12C=CC(=O)N[C@@H]1CC[C@@H]1[C@@H]2CC[C@]2(C)[C@@H](C(=O)Nc3ccc(OCCCNc4cccc5c4C(=O)N(C4CCC(=O)NC4=O)C5=O)cc3)CC[C@@H]12 (stereo partly drawn) [C17, N-(4-((3-((4-(2-(3-(2,6-dioxopiperidine))-isoindole-1,3-dione))amino)propyl)oxy)phenyl)-3-oxo-4-aza-5α-androst-1-ene-17β-carboxamide] | > 1000 | > 1000 | > 1000 | 
2 | C[C@]12C=CC(=O)N[C@@H]1CC[C@@H]1[C@@H]2CC[C@]2(C)[C@@H](C(=O)Nc3ccc(OCCCNc4ccc5c(c4)C(=O)N(C4CCC(=O)NC4=O)C5=O)cc3)CC[C@@H]12 (stereo partly drawn) [C18, N-(4-((3-((5-(2-(3-(2,6-dioxopiperidine))-isoindole-1,3-dione))amino)propyl)oxy)phenyl)-3-oxo-4-aza-5α-androst-1-ene-17β-carboxamide] | > 1000 | > 1000 | > 1000 | 
3 | C[C@]12C=CC(=O)N[C@@H]1CC[C@@H]1[C@@H]2CC[C@]2(C)[C@@H](C(=O)Nc3ccc(OCCCCCNc4cccc5c4C(=O)N(C4CCC(=O)NC4=O)C5=O)cc3)CC[C@@H]12 (stereo partly drawn) [C19, N-(4-((5-((4-(2-(3-(2,6-dioxopiperidine))-isoindole-1,3-dione))amino)pentyl)oxy)phenyl)-3-oxo-4-aza-5α-androst-1-ene-17β-carboxamide] | > 1000 | > 1000 | > 1000 | 
4 | C[C@]12C=CC(=O)N[C@@H]1CC[C@@H]1[C@@H]2CC[C@]2(C)[C@@H](C(=O)Nc3ccc(OCCCCCNc4ccc5c(c4)C(=O)N(C4CCC(=O)NC4=O)C5=O)cc3)CC[C@@H]12 (stereo partly drawn) [C20, N-(4-((5-((5-(2-(3-(2,6-dioxopiperidine))-isoindole-1,3-dione))amino)pentyl)oxy)phenyl)-3-oxo-4-aza-5α-androst-1-ene-17β-carboxamide] | > 1000 | > 1000 | > 1000 | 
5 | C[C@]12C=CC(=O)N[C@@H]1CC[C@@H]1[C@@H]2CC[C@]2(C)[C@@H](C(=O)Nc3ccc(OCCCCCCNc4cccc5c4C(=O)N(C4CCC(=O)NC4=O)C5=O)cc3)CC[C@@H]12 (stereo partly drawn) [C21, N-(4-((6-((4-(2-(3-(2,6-dioxopiperidine))-isoindole-1,3-dione))amino)hexyl)oxy)phenyl)-3-oxo-4-aza-5α-androst-1-ene-17β-carboxamide] | > 1000 | > 1000 | > 1000 | 
6 | C[C@]12C=CC(=O)N[C@@H]1CC[C@@H]1[C@@H]2CC[C@]2(C)[C@@H](C(=O)Nc3ccc(OCCCCCCNc4ccc5c(c4)C(=O)N(C4CCC(=O)NC4=O)C5=O)cc3)CC[C@@H]12 (stereo partly drawn) [C22, N-(4-((6-((5-(2-(3-(2,6-dioxopiperidine))-isoindole-1,3-dione))amino)hexyl)oxy)phenyl)-3-oxo-4-aza-5α-androst-1-ene-17β-carboxamide] | > 1000 | > 1000 | > 1000 | 
7 | C[C@]12C=CC(=O)N[C@@H]1CC[C@@H]1[C@@H]2CC[C@]2(C)[C@@H](C(=O)Nc3ccc(OCCCCCCCNc4cccc5c4C(=O)N(C4CCC(=O)NC4=O)C5=O)cc3)CC[C@@H]12 (stereo partly drawn) [C23, N-(4-((7-((4-(2-(3-(2,6-dioxopiperidine))-isoindole-1,3-dione))amino)heptyl)oxy)phenyl)-3-oxo-4-aza-5α-androst-1-ene-17β-carboxamide] | > 1000 | > 1000 | > 1000 | 
8 | C[C@]12C=CC(=O)N[C@@H]1CC[C@@H]1[C@@H]2CC[C@]2(C)[C@@H](C(=O)Nc3ccc(OCCCCCCCNc4ccc5c(c4)C(=O)N(C4CCC(=O)NC4=O)C5=O)cc3)CC[C@@H]12 (stereo partly drawn) [C24, N-(4-((7-((5-(2-(3-(2,6-dioxopiperidine))-isoindole-1,3-dione))amino)heptyl)oxy)phenyl)-3-oxo-4-aza-5α-androst-1-ene-17β-carboxamide] | > 1000 | > 1000 | > 1000 | 
9 | C[C@]12C=CC(=O)N[C@@H]1CC[C@@H]1[C@@H]2CC[C@]2(C)[C@@H](C(=O)Nc3ccc(OCCCCCCCCNc4cccc5c4C(=O)N(C4CCC(=O)NC4=O)C5=O)cc3)CC[C@@H]12 (stereo partly drawn) [C25, N-(4-((8-((4-(2-(3-(2,6-dioxopiperidine))-isoindole-1,3-dione))amino)octyl)oxy)phenyl)-3-oxo-4-aza-5α-androst-1-ene-17β-carboxamide] | > 1000 | > 1000 | > 1000 | 
10 | C[C@]12C=CC(=O)N[C@@H]1CC[C@@H]1[C@@H]2CC[C@]2(C)[C@@H](C(=O)Nc3ccc(OCCCCCCCCNc4ccc5c(c4)C(=O)N(C4CCC(=O)NC4=O)C5=O)cc3)CC[C@@H]12 (stereo partly drawn) [C26, N-(4-((8-((5-(2-(3-(2,6-dioxopiperidine))-isoindole-1,3-dione))amino)octyl)oxy)phenyl)-3-oxo-4-aza-5α-androst-1-ene-17β-carboxamide] | 10 to 1000 | > 1000 | 0.1 to 10 | 
11 | C[C@]12C=CC(=O)N[C@@H]1CC[C@@H]1[C@@H]2CC[C@]2(C)[C@@H](C(=O)Nc3cccc(OCCNc4cccc5c4C(=O)N(C4CCC(=O)NC4=O)C5=O)c3)CC[C@@H]12 (stereo partly drawn) [C27, N-(3-((2-((4-(2-(3-(2,6-dioxopiperidine))-isoindole-1,3-dione))amino)ethyl)oxy)phenyl)-3-oxo-4-aza-5α-androst-1-ene-17β-carboxamide] | > 1000 | > 1000 | 10 to 1000 | 
12 | C[C@]12C=CC(=O)N[C@@H]1CC[C@@H]1[C@@H]2CC[C@]2(C)[C@@H](C(=O)Nc3cccc(OCCNc4ccc5c(c4)C(=O)N(C4CCC(=O)NC4=O)C5=O)c3)CC[C@@H]12 (stereo partly drawn) [C28, N-(3-((2-((5-(2-(3-(2,6-dioxopiperidine))-isoindole-1,3-dione))amino)ethyl)oxy)phenyl)-3-oxo-4-aza-5α-androst-1-ene-17β-carboxamide] | > 1000 | > 1000 | > 1000 | 
13 | C[C@]12C=CC(=O)N[C@@H]1CC[C@@H]1[C@@H]2CC[C@]2(C)[C@@H](C(=O)Nc3cccc(OCCCNc4cccc5c4C(=O)N(C4CCC(=O)NC4=O)C5=O)c3)CC[C@@H]12 (stereo partly drawn) [C29, N-(3-((3-((4-(2-(3-(2,6-dioxopiperidine))-isoindole-1,3-dione))amino)propyl)oxy)phenyl)-3-oxo-4-aza-5α-androst-1-ene-17β-carboxamide] | 0.1 to 10 | > 1000 | 0.1 to 10 | Anti-proliferative toxicity data in 22Rv1 cells (22Rv1 cells; 0.00006 μM): 0.2%; Anti-proliferative toxicity data in 22Rv1 cells (22Rv1 cells; 0.00032 μM): 5.6%; Anti-proliferative toxicity data in 22Rv1 cells (22Rv1 cells; 0.00160 μM): 27.6%; Anti-proliferative toxicity data in 22Rv1 cells (22Rv1 cells; 0.00800 μM): 64.2%; Anti-proliferative toxicity data in 22Rv1 cells (22Rv1 cells; 0.04000 μM): 70.8%; Anti-proliferative toxicity data in 22Rv1 cells (22Rv1 cells; 0.20000 μM): 72.4%; Anti-proliferative toxicity data in 22Rv1 cells (22Rv1 cells; 1.00000 μM): 73.5%; Anti-proliferative toxicity data in VCaP cells (VCaP cells; 0.00005 μM): 0.4%; Anti-proliferative toxicity data in VCaP cells (VCaP cells; 0.00010 μM): 25.8%; Anti-proliferative toxicity data in VCaP cells (VCaP cells; 0.00030 μM): 40.3%; Anti-proliferative toxicity data in VCaP cells (VCaP cells; 0.00100 μM): 70.8%; Anti-proliferative toxicity data in VCaP cells (VCaP cells; 0.00300 μM): 80.1%; Anti-proliferative toxicity data in VCaP cells (VCaP cells; 0.00600 μM): 88.3%; Anti-proliferative toxicity data in VCaP cells (VCaP cells; 0.03200 μM): 89.4%; Anti-proliferative toxicity data in VCaP cells (VCaP cells; 0.16000 μM): 90.0%
